Like-named read-outs stand apart in the source and are kept apart here. Starred links: 1 amine or outer side, 2 acyl side, 3 side chain; linkers in the order of their positions; H or OH if unused. Positions of bridges follow the written chain, without caps; N, C: chain ends. Non-standard residues stand in square brackets, D forms with d. Residues, ends and D or L forms follow the SMILES beside them. ξ: configuration not given here. *: point of attachment. X22 = O=C(O)COc1cccc(C(=O)N[C@@H](Cc2cn(CC(=O)O)c3ccccc23)C(=O)*)c1; Bip(4'-NH) = O=C([C@H](Cc1ccc(-c2ccc(N[*:3])cc2)cc1)N[*:1])[*:2]; X71 = O=C(O)Cn1cc(C[C@H](NC(=O)c2cccc(C(=O)O)c2)C(=O)*)c2ccccc21; Indazole3carbonyl(1-CH2COOH) = O=C(O)Cn1nc(C(=O)*)c2ccccc21; Bip(4'-COOH) = N[C@@H](Cc1ccc(-c2ccc(C(=O)O)cc2)cc1)C(=O)O; X27 = N=C(NCCC[C@@H](N[*:1])C(=O)[*:2])NCCc1ccc2c(c1)OCO2; X76 = O=C(O)CCC(=O)N[C@@H](Cc1cn(CC(=O)O)c2ccccc12)C(=O)*; X83 = N=C(NCCC[C@@H](N[*:1])C(=O)[*:2])NCCc1ccc(O)c(O)c1; X35 = N=C(NCCC[C@@H](N[*:1])C(=O)[*:2])NCCc1ccc(N)cc1; X58 = N=C(NCCC[C@@H](N[*:1])C(=O)[*:2])NCCc1cccc(N)c1; X11 = CC(=O)N[C@@H](Cc1cn(CC(=O)O)c2ccccc12)C(=O)*; Ala(imidazol-2-yl) = N[C@@H](Cc1ncc[nH]1)C(=O)O; Ala(morpholin-4-yl) = N[C@@H](CN1CCOCC1)C(=O)O; X88 = CC(=O)N[C@@H](Cc1ccc(OCC(=O)O)cc1)C(=O)*; Bip = N[C@@H](Cc1ccc(-c2ccccc2)cc1)C(=O)O; X60 = O=C(c1ccc2c(c1)CCc1ccccc1-2)*; X61 = O=C(c1ccc2c(c1)Cc1ccccc1-2)*; X16 = Cc1noc(-c2ccc(C(=O)*)cc2)n1; Tic = O=C(O)[C@@H]1Cc2ccccc2CN1; Cha = N[C@@H](CC1CCCCC1)C(=O)O; X20 = O=C(c1csc(-c2ccncc2)n1)*; Tle = CC(C)(C)[C@H](N)C(=O)O; ξP = O=C(O)C1CCCN1; Sar = CNCC(=O)O
Target: TNFα (Homo sapiens, UniProt P01375)
Test: TNF-Induced HEK-Blue Assay
Assay type: cell-based
[1] = HEK-Blue-CD40L cells, NF-kB-driven secreted alkaline phosphatase reporter, TNFα 0.5 ng/ml, 18 h, read-out: TNF induced HEK-Blue assay IC50 value

Chain of TNFα (P01375 77-233 limits assumed): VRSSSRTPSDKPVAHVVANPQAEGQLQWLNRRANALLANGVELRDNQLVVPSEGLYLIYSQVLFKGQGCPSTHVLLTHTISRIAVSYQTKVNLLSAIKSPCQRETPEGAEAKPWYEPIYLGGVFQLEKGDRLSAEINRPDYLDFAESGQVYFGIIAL

| SMILES | IC50 [nM] | IC50 [1] [nM] |
| --- | --- | --- |
| CC(C)C[C@@H]1NC(=O)[C@H](CCCNC(=N)N)NC(=O)[C@H](C(C)C)NC(=O)C2CCCN2C(=O)[C@H](C(C)C)NC(=O)[C@@H](CCCNC(=N)NCCc2cccc(N)c2)NC(=O)[C@H](CC(=O)O)NC(=O)[C@@H]2CCCN2C(=O)CN(C)C(=O)[C@H](Cc2ccc(-c3ccc(NC(=O)c4nn(CC(=O)O)c5ccccc45)cc3)cc2)NC(=O)[C@H](Cc2ccc(-c3ccc(C(=O)O)cc3)cc2)NC(=O)[C@H](CN2CCOCC2)NC(=O)CSC[C@@H](C(=O)NCC(N)=O)NC1=O (some centres unmarked) [Example 406] ({CH2CO}-[Ala(morpholin-4-yl)][Bip(4'-COOH)][Bip(4'-NH)](Indazole3carbonyl(1-CH2COOH))[Sar]PD[X58]V[ξP]VRLCG-NH2; thioether N-13) | 50 to 200 | – |
| CC(C)C[C@@H]1NC(=O)[C@H](CCCNC(=N)N)NC(=O)[C@H](C(C)C)NC(=O)[C@@H]2CCCN2C(=O)[C@H](C(C)C)NC(=O)[C@@H](CCCNC(=N)NCCc2ccc(N)cc2)NC(=O)[C@H](CC(=O)O)NC(=O)[C@@H]2CCCN2C(=O)CN(C)C(=O)[C@H](Cc2ccc(-c3ccc(NC(=O)c4nn(CC(=O)O)c5ccccc45)cc3)cc2)NC(=O)[C@H](Cc2ccc(-c3ccccc3)cc2)NC(=O)[C@H](CN2CCOCC2)NC(=O)CSC[C@@H](C(=O)NCC(N)=O)NC1=O [Example 407] ({CH2CO}-[Ala(morpholin-4-yl)][Bip][Bip(4'-NH)](Indazole3carbonyl(1-CH2COOH))[Sar]PD[X35]VPVRLCG-NH2; thioether N-13) | 50 to 200 | – |
| CC(C)C[C@@H]1NC(=O)[C@H](CCCNC(=N)N)NC(=O)[C@H](C(C)C)NC(=O)[C@@H]2CCCN2C(=O)[C@H](C(C)C)NC(=O)[C@@H](CCCNC(=N)NCCc2ccc3c(c2)OCO3)NC(=O)[C@H](CC(=O)O)NC(=O)[C@@H]2CCCN2C(=O)CN(C)C(=O)[C@H](Cc2ccc(-c3ccc(NC(=O)c4nn(CC(=O)O)c5ccccc45)cc3)cc2)NC(=O)[C@H](Cc2ccc(-c3ccccc3)cc2)NC(=O)[C@H](CN2CCOCC2)NC(=O)CSC[C@@H](C(=O)NCC(N)=O)NC1=O [Example 408] ({CH2CO}-[Ala(morpholin-4-yl)][Bip][Bip(4'-NH)](Indazole3carbonyl(1-CH2COOH))[Sar]PD[X27]VPVRLCG-NH2; thioether N-13) | < 50 | – |
| CC(C)C[C@@H]1NC(=O)[C@H](CCCNC(=N)N)NC(=O)[C@H](C(C)C)NC(=O)[C@@H]2CCCN2C(=O)[C@H](C(C)C)NC(=O)[C@@H](CCCNC(=N)NCCc2ccc3c(c2)OCO3)NC(=O)[C@H](CC(=O)O)NC(=O)[C@@H]2CCCN2C(=O)CN(C)C(=O)[C@H](Cc2ccc(-c3ccc(NC(=O)c4nn(CC(=O)O)c5ccccc45)cc3)cc2)NC(=O)[C@H](Cc2ccc(-c3ccc(C(=O)O)cc3)cc2)NC(=O)[C@H](CN2CCOCC2)NC(=O)CSC[C@@H](C(=O)NCC(N)=O)NC1=O [Example 409] ({CH2CO}-[Ala(morpholin-4-yl)][Bip(4'-COOH)][Bip(4'-NH)](Indazole3carbonyl(1-CH2COOH))[Sar]PD[X27]VPVRLCG-NH2; thioether N-13) | 50 to 200 | – |
| CC(C)C[C@@H]1NC(=O)[C@H](CCCNC(=N)N)NC(=O)[C@H](C(C)C)NC(=O)C2CCCN2C(=O)[C@H](C(C)C)NC(=O)[C@@H](CCCNC(=N)NCCc2ccc(O)c(O)c2)NC(=O)[C@H](CC(=O)O)NC(=O)[C@@H]2CCCN2C(=O)CN(C)C(=O)[C@H](Cc2ccc(-c3ccc(NC(=O)c4nn(CC(=O)O)c5ccccc45)cc3)cc2)NC(=O)[C@H](Cc2ccc(-c3ccccc3)cc2)NC(=O)[C@H](CN2CCOCC2)NC(=O)CSC[C@@H](C(=O)NCC(N)=O)NC1=O (some centres unmarked) [Example 410] ({CH2CO}-[Ala(morpholin-4-yl)][Bip][Bip(4'-NH)](Indazole3carbonyl(1-CH2COOH))[Sar]PD[X83]V[ξP]VRLCG-NH2; thioether N-13) | 200 to 2000 | – |
| CC[C@H](C)[C@@H]1NC(=O)[C@@H](CCCNC(=N)N)NC(=O)[C@H](CC(=O)O)NC(=O)[C@H](Cc2cnc[nH]2)NC(=O)CN(C)C(=O)[C@H](Cc2ccc(-c3ccc(NC(=O)c4csc(-c5ccncc5)n4)cc3)cc2)NC(=O)[C@H](Cc2ccc(-c3ccc(C(=O)O)cc3)cc2)NC(=O)[C@H](CC2CCCCC2)NC(=O)CSC[C@@H](C(=O)NCC(N)=O)NC(=O)[C@H](CC(C)C)NC(=O)[C@H](Cc2ncc[nH]2)NC(=O)[C@H](C(C)C)NC(=O)[C@@H]2Cc3ccccc3CN2C1=O [Example 411] ({CH2CO}-[Cha][Bip(4'-COOH)][Bip(4'-NH)](X20)[Sar]HD[dR]I[Tic]V[Ala(imidazol-2-yl)]LCG-NH2; thioether N-13) | – | 50 to 200 |
| CC[C@H](C)[C@@H]1NC(=O)[C@@H](CCCNC(=N)N)NC(=O)[C@H](CC(=O)O)NC(=O)[C@H](Cc2cnc[nH]2)NC(=O)CN(C)C(=O)[C@H](Cc2ccc(-c3ccc(NC(=O)c4ccc(-c5nc(C)no5)cc4)cc3)cc2)NC(=O)[C@H](Cc2ccc(-c3ccc(C(=O)O)cc3)cc2)NC(=O)[C@H](CC2CCCCC2)NC(=O)CSC[C@@H](C(=O)NCC(N)=O)NC(=O)[C@H](CC(C)C)NC(=O)[C@H](Cc2ncc[nH]2)NC(=O)[C@H](C(C)C)NC(=O)[C@@H]2Cc3ccccc3CN2C1=O [Example 412] ({CH2CO}-[Cha][Bip(4'-COOH)][Bip(4'-NH)](X16)[Sar]HD[dR]I[Tic]V[Ala(imidazol-2-yl)]LCG-NH2; thioether N-13) | – | 50 to 200 |
| CC[C@H](C)[C@@H]1NC(=O)[C@@H](CCCNC(=N)N)NC(=O)[C@H](CC(=O)O)NC(=O)[C@H](Cc2cnc[nH]2)NC(=O)CN(C)C(=O)[C@H](Cc2ccc(-c3ccc(NC(=O)[C@H](Cc4cn(CC(=O)O)c5ccccc45)NC(=O)CCC(=O)O)cc3)cc2)NC(=O)[C@H](Cc2ccc(-c3ccccc3)cc2)NC(=O)[C@H](CC2CCCCC2)NC(=O)CSC[C@@H](C(=O)NCC(N)=O)NC(=O)[C@H](CC(C)C)NC(=O)[C@H](Cc2ncc[nH]2)NC(=O)[C@H](C(C)C)NC(=O)[C@@H]2CCCN2C1=O [Example 413] ({CH2CO}-[Cha][Bip][Bip(4'-NH)](X76)[Sar]HD[dR]IPV[Ala(imidazol-2-yl)]LCG-NH2; thioether N-13) | – | 200 to 2000 |
| CC[C@H](C)[C@@H]1NC(=O)[C@@H](CCCNC(=N)N)NC(=O)[C@H](CC(=O)O)NC(=O)[C@H](Cc2cnc[nH]2)NC(=O)CN(C)C(=O)[C@H](Cc2ccc(-c3ccc(NC(=O)[C@H](Cc4cn(CC(=O)O)c5ccccc45)NC(=O)c4cccc(OCC(=O)O)c4)cc3)cc2)NC(=O)[C@H](Cc2ccc(-c3ccccc3)cc2)NC(=O)[C@H](CC2CCCCC2)NC(=O)CSC[C@@H](C(=O)NCC(N)=O)NC(=O)[C@H](CC(C)C)NC(=O)[C@H](Cc2ncc[nH]2)NC(=O)[C@H](C(C)C)NC(=O)[C@@H]2CCCN2C1=O [Example 414] ({CH2CO}-[Cha][Bip][Bip(4'-NH)](X22)[Sar]HD[dR]IPV[Ala(imidazol-2-yl)]LCG-NH2; thioether N-13) | – | 50 to 200 |
| CC[C@H](C)[C@@H]1NC(=O)[C@@H](CCCNC(=N)N)NC(=O)[C@H](CC(=O)O)NC(=O)[C@H](Cc2cnc[nH]2)NC(=O)CN(C)C(=O)[C@H](Cc2ccc(-c3ccc(NC(=O)[C@H](Cc4cn(CC(=O)O)c5ccccc45)NC(=O)c4cccc(C(=O)O)c4)cc3)cc2)NC(=O)[C@H](Cc2ccc(-c3ccccc3)cc2)NC(=O)[C@H](CC2CCCCC2)NC(=O)CSC[C@@H](C(=O)NCC(N)=O)NC(=O)[C@H](CC(C)C)NC(=O)[C@H](Cc2ncc[nH]2)NC(=O)[C@H](C(C)C)NC(=O)[C@@H]2CCCN2C1=O [Example 415] ({CH2CO}-[Cha][Bip][Bip(4'-NH)](X71)[Sar]HD[dR]IPV[Ala(imidazol-2-yl)]LCG-NH2; thioether N-13) | – | 50 to 200 |
| CC[C@H](C)[C@@H]1NC(=O)[C@@H]2CCCN2C(=O)[C@H]([C@@H](C)CC)NC(=O)[C@@H](CCCNC(=N)N)NC(=O)[C@H](CC(=O)O)NC(=O)[C@H](Cc2ccccc2)NC(=O)CN(C)C(=O)[C@H](Cc2ccc(-c3ccc(NC(=O)[C@H](Cc4cn(CC(=O)O)c5ccccc45)NC(C)=O)cc3)cc2)NC(=O)[C@H](Cc2ccc(-c3ccc(C(=O)O)cc3)cc2)NC(=O)[C@H](C(C)(C)C)NC(=O)CSC[C@@H](C(=O)NCC(N)=O)NC(=O)[C@H](CC(C)C)NC(=O)[C@H](Cc2ncc[nH]2)NC1=O [Example 416] ({CH2CO}-[Tle][Bip(4'-COOH)][Bip(4'-NH)](X11)[Sar]FD[dR]IPI[Ala(imidazol-2-yl)]LCG-NH2; thioether N-13) | – | 50 to 200 |
| CC[C@H](C)[C@@H]1NC(=O)[C@@H]2CCCN2C(=O)[C@H]([C@@H](C)CC)NC(=O)[C@@H](CCCNC(=N)N)NC(=O)[C@H](CC(=O)O)NC(=O)[C@H](Cc2ccccc2)NC(=O)CN(C)C(=O)[C@H](Cc2ccc(-c3ccc(NC(=O)[C@H](Cc4ccc(OCC(=O)O)cc4)NC(C)=O)cc3)cc2)NC(=O)[C@H](Cc2ccc(-c3ccc(C(=O)O)cc3)cc2)NC(=O)[C@H](C(C)(C)C)NC(=O)CSC[C@@H](C(=O)NCC(N)=O)NC(=O)[C@H](CC(C)C)NC(=O)[C@H](Cc2ncc[nH]2)NC1=O [Example 417] ({CH2CO}-[Tle][Bip(4'-COOH)][Bip(4'-NH)](X88)[Sar]FD[dR]IPI[Ala(imidazol-2-yl)]LCG-NH2; thioether N-13) | – | < 50 |
| CC[C@H](C)[C@@H]1NC(=O)[C@@H]2CCCN2C(=O)[C@H]([C@@H](C)CC)NC(=O)[C@@H](CCCNC(=N)N)NC(=O)[C@H](CC(=O)O)NC(=O)[C@H](Cc2ccccc2)NC(=O)CN(C)C(=O)[C@H](Cc2ccc(-c3ccc(NC(=O)c4ccc5c(c4)Cc4ccccc4-5)cc3)cc2)NC(=O)[C@H](Cc2ccc(-c3ccc(C(=O)O)cc3)cc2)NC(=O)[C@H](C(C)(C)C)NC(=O)CSC[C@@H](C(=O)NCC(N)=O)NC(=O)[C@H](CC(C)C)NC(=O)[C@H](Cc2cnc[nH]2)NC1=O [Example 418] ({CH2CO}-[Tle][Bip(4'-COOH)][Bip(4'-NH)](X61)[Sar]FD[dR]IPIHLCG-NH2; thioether N-13) | – | 50 to 200 |
| CC[C@H](C)[C@@H]1NC(=O)C2CCCN2C(=O)[C@H]([C@@H](C)CC)NC(=O)[C@@H](CCCNC(=N)N)NC(=O)[C@H](CC(=O)O)NC(=O)[C@H](Cc2ccccc2)NC(=O)CN(C)C(=O)[C@H](Cc2ccc(-c3ccc(NC(=O)c4ccc5c(c4)CCc4ccccc4-5)cc3)cc2)NC(=O)[C@H](Cc2ccc(-c3ccc(C(=O)O)cc3)cc2)NC(=O)[C@H](C(C)(C)C)NC(=O)CSC[C@@H](C(=O)NCC(N)=O)NC(=O)[C@H](CC(C)C)NC(=O)[C@H](Cc2ncc[nH]2)NC1=O (some centres unmarked) [Example 419] ({CH2CO}-[Tle][Bip(4'-COOH)][Bip(4'-NH)](X60)[Sar]FD[dR]I[ξP]I[Ala(imidazol-2-yl)]LCG-NH2; thioether N-13) | – | 200 to 2000 |
